Data published in US20180153830A1, “SELECTIVE INHIBITORS OF UNDIFFERENTIATED CELLS” (Yissum Research Development Company of the Hebrew …, priority 2012, published 2018).
Several values for one entry are separate records, joined by “and”; a condition that tells them apart may be missing. Equal entries are not always repeated.

What was measured:
[1] = system: mouse embryos (inner cell mass); assay: In-vitro embryonic development experiments; assay type: cell-based; settings: for proportion of high quality blastocysts: compound alone; for embryos developing into good quality (category A/B) blastocysts: compound alone (20 μM PluriSIn #1 or 100 nm A939572); for embryos developing into good quality blastocysts with oleic acid / proportion of high quality blastocysts with oleic acid: compound with 100 μM oleic acid
Description: Superovulation was induced in female mice (CB6F1/OLAHSD and ICR:HSD(CD-1)), by injection of gonadotropins: intraperitoneal injection of 5 IU PMSG (pregnant mare's serum gonadotropin) at 1:00 P.M. was followed by an intraperitoneal injection of 5 IU hCG (human chorionic gonadotropin) 47 hours later, in accordance with the procedures described by Najy et al. [Manipulating the mouse embryo: a laboratory manual, 3rd Edn., Cold Spring Harbor Laboratory Press (2003)].
Females were mated with stud males immediately after the second injection, and plugging was evident the next morning. Pregnant female mice were sacrificed at approximately 36 hours p.c. (post coitum), and two-cell embryos were collected in accordance with the procedures described by Najy et al. [Manipulating the mouse embryo: a laboratory manual, 3rd Edn., Cold Spring Harbor Laboratory Press (2003)]. The abdominal cavity was opened, and the oviduct was cut and transferred to a Petri dish containing M2 medium at room temperature. The oviduct was flushed with M2 medium, and embryos were picked up using a pipette and washed in M2 medium to rinse off debris. Embryos were then transferred to microdrops of M16 medium. A 35 mm culture dish (Falcon BD) containing drops of 40 μl M16 medium, covered with mineral oil, was prepared the day before, and incubated overnight at a temperature of 37° C. under 5% CO2. Embryos were then transferred to these microdrops following their collection, and incubated at a temperature of 37° C. under 5% CO2. The development of the embryos was examined twice a day using light microscopy imaging. At the morula stage (approximately 3.5 days p.c.), embryos were transferred either to microdrops of 40 μl M16 medium with 20 μM PluriSIn #1 (isonicotinic acid N′-phenylhydrazide) in 0.2% DMSO, or to control microdrops with 0.2% DMSO. Other control embryos were left at the original microdrops to control for possible effects of the transfer itself. At approximately 4 days p.c. and 4.5 days p.c., the embryos were examined using light microscopy imaging, and blastocysts were graded as described by Cortes et al. [Stem Cells and Development 17:255-267 (2008)].
As described in the Materials and Methods section, a series of independent experiments were performed with two strains of mice, in which two-cell embryos were collected from the oviducts of pregnant mice at approximately 1.5 days post coitum, and these embryos were then let to develop in vitro. The embryos reached the morula stage at approximately 3.5 days post coitum, and were then transferred either to drops with 20 μM PluriSIn #1 (17 embryos in total), drops with 20 μM PluriSIn #1 and 100 μM oleic acid (7 embryos in total), or to control drops with 0.2% DMSO (8 embryos in total), while other control embryos were left to develop without transfer at all (10 embryos in total). Using light microscopy imaging, the development of the embryos was followed until they became mature blastocysts (at approximately 4.5 days post coitum, after which all embryos disintegrated in culture). The blastocysts were then classified into three distinct categories: (A) good quality mouse blastocysts with large and distinct ICM; (B) mouse blastocysts with distinct, but smaller, ICM; and (C) bad quality mouse blastocysts with indistinguishable ICM, as described by Cortes et al. [Stem Cells and Development 17:255-267 (2008)].
The above experiments with mouse embryos were then repeated using the SCD1 inhibitor A939572 instead of PluriSIn #1, and compared with the results obtained with PluriSIn #1, in order to confirm that the effects of PluriSIn #1 are associated with inhibition of SCD1 activity.

[2] = system: protein synthesis in H9 embryonic stem cells; assay: 35S-Met metabolic labeling of protein synthesis, ES cells; assay type: cell-based, human; settings: 12 hours; 20 μM PluriSIn #1 or 100 nm A939572
Description: (§1) H9 embryonic stem cells were seeded in Matrigel™ pre-coated 6-well tissue culture plates at a density of 2×10^5 cells/well, and cultured using mTeSR1 defined medium. BJ fibroblasts were seeded in 6-well tissue culture plate at the same density, and cultured with DMEM supplemented with 10% FBS, penicillin (50 U/ml) and streptomycin (50 μg/ml). Cells were treated for 12 hours with either 20 μM PluriSIn #1 (isonicotinic acid N′-phenylhydrazide) or with 0.2% DMSO. Cells were then washed with PBS, and replenished with methionine-deficient medium for 1 hour. Metabolic labeling of the cells was then performed for 1 hour with 10 μCi of […] methionine in 1 ml/well, in the presence of 20 μM PluriSIn #1 or 0.2% DMSO. Cells were washed with PBS containing 10 mM methionine, and were then lysed in 0.4 ml of 30% ice-cold trichloroacetic acid (TCA) containing 10 mM methionine for 15 minutes. […] Total protein concentration was determined using a Bradford Protein Assay (Sigma-Aldrich), and the radioactivity measurements were normalized accordingly. […]
(§2) The similarity between PSIs and PluriSIn #1 and #6 is consistent with the fact that UPR can lead to translational attenuation. In order to confirm this link, the effect of PluriSIn #1 treatment on protein synthesis was determined. […]

[3] = system: caspase-3 in embryonic stem cells; assay: Immunoblotting for caspase-3; assay type: cell-based, human; settings: 20 μM
Description: For immunoblotting, 10% polyacrylamide gel was used for protein separation and detection. The gel was transferred to a nitrocellulose membrane and antibody hybridization and chemiluminescence were performed according to standard procedures. The primary antibodies in this analysis were rabbit anti-phosphorylated-eIF2a (1:250, Cell Signaling Technology), rabbit anti caspase-3 (1:1,000, Cell Signaling Technology), mouse anti β-catenin (1:10,000, BD Biosciences) and mouse anti-α-tubulin (1:50,000, Sigma-Aldrich). Horseradish peroxidase-conjugated anti-rabbit and anti-mouse secondary antibodies were obtained from Jackson Immunoresearch Laboratories.
The finding of gene expression associated with apoptosis is consistent with previous reports that pluripotent cells are prone to apoptosis [Qin et al., Journal of Biological Chemistry 282:5842-5852 (2007); Momcilovic et al., PloS One 5:e13410 (2010)]. However, pluripotent cells have also been reported to be susceptible to other types of cell death, such as oncosis [Tan et al., Stem Cells 27:1792-1801 (2009)] and autophagy [Alexander et al., PNAS 108:15828-15833 (2011)]. An Annexin V-FITC detection assay and immunoblotting for caspase-3 (a hallmark executioner of apoptosis) were therefore used in order to confirm that the massive hPSC death induced by PluriSIn #1 is indeed apoptosis.

[4] = system: protein synthesis in BJ fibroblasts; assay: 35S-Met metabolic labeling of protein synthesis, fibroblasts; assay type: cell-based, human; settings: 12 hours, 20 μM
Description: as §1, §2

Row | SMILES | proportion of high quality blastocysts [1] | embryos developing into good quality (category A/B) blastocysts [1] | embryos developing into good quality blastocysts with oleic acid [1] | proportion of high quality blastocysts with oleic acid [1] | decrease in protein synthesis, ES cells [2] | embryos developing into blastocysts with no distinguished ICM (category C) ([1]; 20 μM) | embryos stuck at the morula stage ([1]; 20 μM) | activation of caspase-3 [3] | effect on protein synthesis, differentiated cells (fibroblasts) [4]
1 | CNC(=O)c1cccc(NC(=O)N2CCC(Oc3ccccc3Cl)CC2)c1 [A939572, 4-(2-chlorophenoxy)-N-(3-(methylcarbamoyl)-phenyl)piperidine-1-carboxamide, reference compound] | 56% | 5 of 9 | 5 of 7 | 71% | approximately 50% | – | – | – | –
2 | O=C(NNc1ccccc1)c1ccncc1 [PluriSIn #1, isonicotinic acid N′-phenylhydrazide] | 41% | 7 of 17 and 7/17 | 5 of 7 | 71% | approximately 30% | 6 of 17 and 6/17 | 4 of 17 and 4/17 | enhanced activation of caspase-3 | no effect
